According to patent US6998392B2, “Formulation to treat or prevent parasitic infection” (MTI Meta Tech Inc., priority 2003, dated 2006):

System: Giardia lamblia (WB strain) trophozoites
Assay: Growth of Giardia lamblia trophozoites during 24 hr and 48 hr incubation in vitro (live and dead counts)
Type: cell-based
Settings: for Reduction of live trophozoites compared to control cultures: 48 hr incubation, n=3
Method: Methods for Evaluating the Effect of Ganglioside Enriched Preparation and Ganglioside Fractions on Growth of Giardia lamblia Trophozoites in vitro. The following method was used for preparation of culture medium containing ganglioside. A preparation containing gangliosides was vortexed and sonicated (Sonic 300 Dismembrator™, Artek System Corp.) in 10 ml of TYI-S-33 culture medium, and further diluted by adding 990 ml of culture medium. This stock culture medium containing a known concentration of gangliosides was filtered in succession through Whatman™ No. 1 filter paper, 0.8 μm, 0.45 μm (Milli-Fil-P.F.™ Millipore Corp.), and 0.22 μm (Sterivex-GS™ filters with filling bell, Millipore Corp) filters connected to a peristaltic pump. This stock solution was kept at −30° C. and was diluted on the day of inoculation.
G. lamblia (WB strain) trophozoites were cultured in Diamond's TYI-S-33 (Diamond et al., 1978.). G. lamblia trophozoites (5×10^5) were inoculated in 12.5 cm^2 tissue culture flasks in the total volume of […]. Nutrient stock solution containing gangliosides was diluted to provide a concentration of ganglioside (as N-Acetyl neuraminic acid amounts, NANA) at 0 (control), 0.001, 0.01, 1, 2, and 4 μg/ml. The cultures were incubated for 24 and 48 hr at 37° C. in 5% CO2, and the number of live and dead (no flagellar movement) trophozoites determined using a hemocytometer.
The following method was used for preparation of culture medium containing ganglioside fraction. Total lipids were extracted from the ganglioside enriched preparation using the Folch method (Folch et al., 1957). The ganglioside containing upper phase was transferred and the lower phase was washed once with Folch upper phase solution (chloroform/methanol/water, 3/48/47 by vol.). The combined ganglioside containing fractions were passed through Sep-Pak™ C18 reverse-phase cartridges (Waters Corporation, Milford, Mass., USA), eluted with methanol and chloroform and methanol 2:1 (v/v), and dried completely under vacuum at 23° C. using a rotary evaporator (Williams et al., 1980). Ganglioside (NANA) content was measured as described by Suzuki (1964). Gangliosides were then diluted using the culture medium and filtered as described above.
G. lamblia trophozoites (5×10^5) were incubated for 24 hr and 48 hr with ganglioside fraction at the concentration of 0 (control), 4, 8, 10, 12, 14, 16 and 20 μg/ml in 12.5 cm^2 tissue culture flasks as described above.
In vitro. This study was performed to determine if Fraction A is directly toxic to the parasite. Several dilutions of Fraction A was added to the media at the concentration of 0, 0.001, 0.01, 0, 1, 1, 2, and 4 ug/ml and incubated for 24 hours and 48 hours after inoculation with 500,000 Giardia lamblia trophozoites. […]

II^(NeuAc)2-LacCer [GD3]
Reduction of live trophozoites compared to control cultures (10 μg/ml (NANA)): 25%
Reduction of live trophozoites compared to control cultures (20 μg/ml (NANA)): 55%
Live trophozoites as a percent of control versus concentration (48 hour incubation, in words (FIG. 12)): decrease as a percent of control in a dose-dependent manner
Dead trophozoites as a percentage of live trophozoites versus concentration (48 hour incubation, in words (FIG. 13)): increase as a percentage of live trophozoites
